Measurements as given in US6008188A, “Cytokine potentiator and pharmaceutical formulation for cytokine administration” (Kanebo Limited, priority 1994, dated 1999).

Tests used:
[1] = system: Normal human fibroblasts [CCD45SK (ATCC CRL 1506)]; test: Response to βFGF: procollagenase production by normal human fibroblasts CCD45SK (Test Examples 1-3); assay type: cell-based; details: for activity at 1000 µM: Homo sapiens, Fibroblast, read-out: Response to βFGF Increment; for Procollagenase Production: mean ± SD, n = 3
Protocol: In the following tests, the procollagenase production was quantified in terms of the collagenase activity as obtained through activation with trypsin.
It is known that βFGF promotes procollagenase production. In the following tests, therefore, the βFGF activity increment as attained by the compound added was calculated from the procollagenase production, relative to the control using purified water in place of the test compound.
Normal human fibroblasts [CCD45SK (ATCC CRL 1506) as prepared from the skin of a person] were suspended at a cell density of 1×10^5 cells/ml in the MEM medium, comprising 10% (V/V) FBS and 1% (V/V) non-essential amino acids (produced by Dai-Nippon Pharmaceutical Co.). The suspended cells were seeded into each well of a 12-well plate in an amount of 0.8 ml/well (corresponding to 8×10^4 cells/well) and incubated in a saturated aqueous vapor with 5% CO2 at 37° C. […]
After having been incubated for 24 hours, the culture medium was removed from the plate by suction, and the cells remained were washed twice with an MEM medium containing 0.6% (v/v) (as final concentration) of FBS. Then, the cells were fed with 0.8 ml of the solution prepared above added to the cells, which were incubated for 2 days.
After the 2 days incubation, the culture medium was removed from the plate by suction, and the cells were fed with 0.8 ml of the solution and were further incubated for 2 days. This operation was repeated once again. Thus, the cells were processed in the medium containing the cytokine activity enhancer for 6 days in total.
After the above-mentioned process, the culture medium was removed from the plate by suction, and the cells were fed with 0.8 ml of an MEM medium containing 3 ng/ml of βFGF (produced by Boehringer Manheim Co.) and 0.6% (V/V) FBS, and were incubated for 3 days to obtain a culture supernatant.
3.5 ml of 10 mM Tris-HCl buffer [adjusted at pH 7.8 at 4° C., containing 1 mM calcium chloride and 0.05% (W/V) Brij-35] was added to 500 μl of the thus-obtained culture supernatant, and applied to CM-Sepharose CL-6B (trade name, produced by Pharmacia Co., having a bed volume of 0.5 ml) as previously equilibrated with the same buffer.
Next, the inhibitor was removed through treatment with 0.5 ml of the same buffer as above but containing 125 mM sodium chloride (4 times in all, 2 ml of the buffer was used in total), and the procollagenase was recovered through treatment with 0.5 ml of the same buffer as above but containing 500 mM sodium chloride (4 times in all, 2 ml of the buffer was used in total). This was used as a test sample.
The test sample was suitably diluted with a buffer for measurement (mentioned above), 25 μl of the thus-diluted sample was mixed with 25 μl of the buffer, 20 μl of a trypsin solution (as prepared by adding trypsin, Type 12 (produced by Sigma Co.) to the buffer at a concentration of 1 mg/ml) was added thereto, and this was incubated at 35° C. for 5 minutes. Then, 30 μl of a soybean trypsin inhibitor solution (as prepared at a concentration of 3 mg/ml, using the buffer) was added to this to thereby inactivate the trypsin. The resulting solution is designated collagenase solution.
Using type I collagen as labeled with fluorescein isothiocyanate (hereinafter referred to as FITC) (this is an acetic acid solution of FITC-collagen having a concentration of 1 mg/ml; produced by Cosmo-Bio Co.), as a substrate solution, the collagenase activity (unit/ml) of the solution was measured according to the method of Nagai et al. (see Inflammations, Vol. 4, No. 2, p. 123, 1984). […] The procollagenase production (unit/ml of culture medium) was thus obtained and referred to as X1.

[2] = system: Normal human fibroblasts [CCD45SK (ATCC CRL 1506)]; test: Response to PDGF: procollagenase production by normal human fibroblasts (Test Example 11); assay type: cell-based; details: 1 mM, 6 days, 30 ng/ml PDGF-BB
Protocol: (§1) Normal human fibroblasts [CCD45SK (ATCC CRL 1506) as prepared from the skin of a person] were suspended at a cell density of 1×10^5 cells/ml in the MEM medium, comprising 10% (V/V) FBS and 1% (V/V) non-essential amino acids (produced by Dai-Nippon Pharmaceutical Co.). The suspended cells were seeded into each well of a 12-well plate in an amount of 0.8 ml/well (corresponding to 8×10^4 cells/well) and incubated in a saturated aqueous vapor with 5% CO2 at 37° C.

[3] = system: Normal human fibroblasts [CCD45SK (ATCC CRL 1506)]; test: Response to TGF-β1: TIMP production by normal human fibroblasts (Test Examples 12-13); assay type: cell-based; details: Test Example 12, 1 mM, 6 days, 3 ng/ml TGF-β1, 3 days
Protocol: as §1

male ICR mice = test: Acute Toxicity Test; details: oral, 5 g/kg of body weight; observed for 7 days
Protocol: Water, or an aqueous solution of N-Methyl-L-Serine (this was prepared to have a concentration of 5 g/kg of body weight of test animal, as a sample) was orally administered to male ICR mice (5 weeks-age; body weight, 24 to 28 g; 5 mice in one group), in an amount of […] of body weight.

[4] = system: Japanese native, male house rabbits; details: rabbit, in vivo
Protocol: Aqueous solutions of N-methyl-L-serine, ethanolamine and N-methylethanolamine that had been adjusted to have a pH 7 with hydrochloric acid were used as test samples.
Using Japanese native, male house rabbits (body weight: about 3 kg), the test samples were tested according to the above-mentioned the Draize method.
Precisely, the back of each rabbit was shaven and rubbed to form a scratched site (scratched skin). An adhesive tape for patch test (1.2×1.6 cm; Ribbon Aid, registered trade mane, produced by River Tape Chemicals Co.) as wetted with 0.1 ml of water, or 0.1 ml of an aqueous 1% (W/V) solution of the test compound was stuck onto the scratched skin and the normal skin. […] In addition, 48 hours after the peeling of the tape, the condition of the skin was also observed.
The scores as referred to in Table 21 were obtained, and the primary stimulation score was calculated according to the following equation.
Primary Stimulation Score=[(A+B)/2]+[(C+D)/2]+[(E+F)/2]+[(G+H)/2]
Next, from the primary stimulation scores, obtained was the degree of stimulation with N-Methyl-L-Serine or Ethanolamine or N-Methylethanolamineaccording to the criteria shown in Table 22 below.

CN[C@@H](CO)C(=O)O [Example 1, N-methyl-L-serine]
concentration dependence of increase in procollagenase production / response to βFGF ([1]; 0.01 to 10 mM): in a concentration-dependent manner | activity at 1000 µM ([1]; 144 h, Test Example 1, 1 mM, 6 days, 3 ng/ml βFGF, control (purified water) = 100): 220% | activity at 1000 µM ([1]; Test Example 2, 0.01 mM, control = 100): 100% | activity at 1000 µM ([1]; Test Example 2, 1.0 mM, control = 100): 130% | Procollagenase Production ([1]; Test Example 1, 1 mM, 6 days, 3 ng/ml βFGF): 15 ± 1.0 unit/ml | Procollagenase Production ([1]; Test Example 2, 0.01 mM): 15 ± 3.3 unit/ml | Procollagenase Production ([1]; Test Example 2, 0.1 mM): 17 ± 2.9 unit/ml | Procollagenase Production ([1]; Test Example 2, 0.3 mM): 24 ± 3.5 unit/ml | Procollagenase Production ([1]; Test Example 2, 1.0 mM): 19 ± 1.3 unit/ml | Procollagenase Production ([1]; Test Example 2, 3.0 mM): 26 ± 1.5 unit/ml | Procollagenase Production ([1]; Test Example 2, 10 mM): 32 ± 2.2 unit/ml | Procollagenase Production ([2]; mean ± SD, n = 3): 4.2 ± 2.0 unit/ml | activity at 1000 µM ([2]; Homo sapiens, Fibroblast, 144 h, control = 100, read-out: Response to PDGF Increment): 690% | activity at 1000 µM ([3]; Homo sapiens, Fibroblast, control = 100, read-out: Response to TGF-β1 Increment): 240% | TIMP Production ([3]; mean ± SD, n = 3): 240 ± 21 unit/ml | deaths of mice (male ICR mice): No mice of the test group to which N-Methyl-L-Serine was administered died | Primary Stimulation Score [4]: 0 | stimulation to the skin (in words) [4]: low
